Species: Rattus norvegicus
Assay: In vitro effective dose for the growth hormone(GH) release in rat pituitary cells
Assay type: functional
Details: Pituitary gland cell, read-out: ED50 (the source's name)

SMILES	EC50
CC(C)(N)CC(=O)N[C@@H]1CCc2ccccc2N(Cc2ccc(-c3ccccc3-c3nnnn3CC(=O)O)cc2)C1=O	1000 nM
CC(C)(N)CC(=O)N[C@@H]1CCc2ccccc2N(Cc2ccc(-c3ccccc3-c3nnn(CC(=O)O)n3)cc2)C1=O	200 nM
Cn1nnnc1-c1ccccc1-c1ccc(CN2C(=O)[C@H](NC(=O)CC(C)(C)N)CCc3ccccc32)cc1	500 nM
CC(C)(N)CC(=O)N[C@@H]1CCc2ccccc2N(Cc2ccc(-c3ccccc3-c3nnn(Cc4ccccc4)n3)cc2)C1=O	1000 nM
CC(C)(N)CC(=O)N[C@@H]1CCc2ccccc2N(Cc2ccc(-c3ccccc3-c3nnnn3Cc3ccccc3)cc2)C1=O	700 nM
CC(C)(N)CC(=O)N[C@@H]1CCc2ccccc2N(Cc2ccc(-c3ccccc3S(=O)(=O)NC(C)(C)C)cc2)C1=O	4000 nM
CC(C)(N)CC(=O)N[C@@H]1CCc2ccccc2N(Cc2ccc(-c3ccccc3S(=O)(=O)NC(=O)c3ccccc3)cc2)C1=O	3000 nM
CC(O)Cn1nnc(-c2ccccc2-c2ccc(CN3C(=O)[C@H](NC(=O)CC(C)(C)N)CCc4ccccc43)cc2)n1 (some centres not stated)	50 nM
CC(C)(N)CC(=O)N[C@@H]1CCc2ccccc2N(Cc2ccc(-c3ccccc3-c3nn[nH]n3)cc2)C1=O	60 nM
CC(C)(N)CC(=O)N[C@@H]1CCc2ccccc2N(Cc2ccc(-c3ccccc3S(N)(=O)=O)cc2)C1=O	3000 nM
CC(C)(N)CC(=O)N[C@@H]1CCc2ccccc2N(Cc2ccc(-c3ccccc3C(N)=O)cc2)C1=O	80 nM
CC(C)(N)CC(=O)N[C@@H]1CCc2ccccc2N(Cc2ccc(-c3ccccc3C(=O)O)cc2)C1=O	3000 nM
Cc1ccccc1-c1ccc(CN2C(=O)[C@H](NC(=O)CC(C)(C)N)CCc3ccccc32)cc1	1000 nM
CC(O)Cn1nnnc1-c1ccccc1-c1ccc(CN2C(=O)[C@H](NC(=O)CC(C)(C)N)CCc3ccccc32)cc1 (some centres not stated)	50 nM
Cn1nnc(-c2ccccc2-c2ccc(CN3C(=O)[C@H](NC(=O)CC(C)(C)N)CCc4ccccc43)cc2)n1	300 nM
CC(C)(N)CC(=O)N[C@@H]1CCc2ccccc2N(Cc2ccc(-c3ccccc3C#N)cc2)C1=O (racemic)	5000 nM
COC(=O)c1ccccc1-c1ccc(CN2C(=O)[C@H](NC(=O)CC(C)(C)N)CCc3ccccc32)cc1 (racemic)	2000 nM

Reference: ChEMBL document CHEMBL1150030, “Benzolactam growth hormone secretagogues: replacements for the 2-tetrazole moiety of L-692,429” (1994)
